Here are results for 5 compounds from patent US20260184663A1, “INDENE COMPOUNDS, PHARMACEUTICAL COMPOSITIONS THEREOF, AND THEIR THERAPEUTIC APPLICATIONS” (NucMito Pharmaceuticals co. Ltd., priority 2022, published 2026).

Common to all, as to format: cell-based
The test system of assay [1] is A431 (epidermoid carcinoma). The assay can be described thus: Antiproliferative activity (CCK-8 cell viability), A431. The conditions noted are these: Homo sapiens, 72 h, read-out: Antiproliferative activity in cancerous cells, A431 (inhibition of cell growth); for inhibition at 3.3 µM: A-431, Compound concentration: 3.3 μM; for inhibition at 10 µM: A-431, Compound concentration: 10 μM; for inhibition at 30 µM: A-431, Compound concentration: 30 μM. The method in brief:
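A431 epidermoid carcinoma cells grown in DMEM with 10% FBS were plated at 2,000-5,000 cells/well in 96-well plates. After attachment they were exposed to compound at 3.3 μM, 10 μM, or 30 μM for 72 h at 37° C. Viability was then assessed by CCK-8 against DMSO vehicle-treated wells.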

In assay [2] the test system is A549 (lung adenocarcinoma). The assay can be described thus: Antiproliferative activity (CCK-8 cell viability), A549. The conditions noted are these: Homo sapiens, 72 h, read-out: Antiproliferative activity in cancerous cells, A549 (inhibition of cell growth); for inhibition at 3.3 µM: Compound concentration: 3.3 μM; for inhibition at 10 µM: Compound concentration: 10 μM; for inhibition at 30 µM: Compound concentration: 30 μM. The method in brief:
(§1)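 Cells grown in DMEM (HepG2, SW480), MEM (HeLa) or F-12K (A549), each with 10% FBS, then exposed to compound at 3.3, 10 or 30 μM for 72 h at 37 °C. CCK-8 absorbance at 450 nm; viability expressed as percent of DMSO-treated cells, graded as growth inhibition bands.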

A further assay concerns SW480 (colon cancer). Put plainly: Antiproliferative activity (CCK-8 cell viability), SW480. The note with it: Homo sapiens, 72 h, read-out: Antiproliferative activity in cancerous cells, SW480 (inhibition of cell growth); for inhibition at 3.3 µM: Compound concentration: 3.3 μM; for inhibition at 10 µM: Compound concentration: 10 μM; for inhibition at 30 µM: Compound concentration: 30 μM. In outline:
as §1

The test system of assay [3] is MDA-MB-231 (breast cancer). The assay can be described thus: Antiproliferative activity (CCK-8 cell viability), MDA-MB-231. The note with it: Homo sapiens, 72 h, read-out: Antiproliferative activity in cancerous cells, MDA-MB-231 (inhibition of cell growth); for inhibition at 3.3 µM: Compound concentration: 3.3 μM; for inhibition at 10 µM: Compound concentration: 10 μM; for inhibition at 30 µM: Compound concentration: 30 μM. The method in brief:
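MDA-MB-231 breast cancer cells, grown in DMEM with 10% FBS, were plated in 96-well plates at 2,000-5,000 cells/well. Once attached, they were exposed to compound and incubated at 37° C. for 72 h. Viability was then measured with CCK-8 (10 μL per well, 4 h at 37° C.) by absorbance at 450 nm, relative to DMSO vehicle wells.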

For a further assay, the system named is HeLa (cervical cancer). Put plainly: Antiproliferative activity (CCK-8 cell viability), HeLa. The conditions noted are these: Homo sapiens, 72 h, read-out: Antiproliferative activity in cancerous cells, HELA (inhibition of cell growth); for inhibition at 3.3 µM: Compound concentration: 3.3 μM; for inhibition at 10 µM: Compound concentration: 10 μM; for inhibition at 30 µM: Compound concentration: 30 μM. In outline:
as §1

The subject of assay [4] is B16F10 (malignant melanoma). The assay can be described thus: Antiproliferative activity (CCK-8 cell viability), B16F10. The conditions noted are these: Mus musculus, 72 h, read-out: Antiproliferative activity in cancerous cells, B16F10 (inhibition of cell growth); for inhibition at 3.3 µM: B16-F10, Compound concentration: 3.3 μM; for inhibition at 10 µM: B16-F10, Compound concentration: 10 μM; for inhibition at 30 µM: B16-F10, Compound concentration: 30 μM. In outline: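 B16F10 melanoma cells grown in DMEM with 10% FBS were plated in 96-well plates at 2,000-5,000 cells/well. After attachment they were exposed to compound in medium for 72 h at 37° C. CCK-8 solution (10 μL) was then added, and after 4 h at 37° C absorbance was read at 450 nm.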

The subject of the next assay is HepG2 (liver cancer). Put plainly: Antiproliferative activity (CCK-8 cell viability), HepG2. The note with it: Homo sapiens, 72 h, read-out: Antiproliferative activity in cancerous cells, HepG2 (inhibition of cell growth); for inhibition at 3.3 µM: Compound concentration: 3.3 μM; for inhibition at 10 µM: Compound concentration: 10 μM; for inhibition at 30 µM: Compound concentration: 30 μM. The method in brief: as §1

One may read the inhibition as the percentage by which the read-out fell short of the control.

Consider `CC1=C(CC(=O)O)c2cc(F)ccc2/C1=C\c1ccc(OC2CCN(C(=O)OC(C)(C)C)CC2)cc1` [C201, (Z)-2-(1-(4-((1-(Tert-butoxycarbonyl)piperidin-4-yl)oxy)benzylidene)-5-fluoro-2-methyl-1H-inden-3-yl)acetic acid], for which the inhibition at 3.3 µM is ≥ 50% in assay [1]; < 30% in assay [2]; < 30% in the assay with SW480 (colon cancer); < 30% in assay [3]; < 30% in the assay with HeLa (cervical cancer); < 30% in assay [4]. Further, the inhibition at 3.3 µM in the assay on HepG2 (liver cancer) is < 30%. The inhibition at 10 µM (in assay [1]; in assay [2]; in the assay with SW480 (colon cancer); in assay [3]; with HeLa (cervical cancer); in assay [4]) was ≥ 50% each time. For the same compound, the inhibition at 10 µM in the assay on HepG2 (liver cancer) was ≥ 50%. In addition, the inhibition at 30 µM (in assay [1]; in assay [2]; in the assay on SW480 (colon cancer); in assay [3]; in the assay on HeLa (cervical cancer); in assay [4]) was ≥ 50% throughout. For the same compound, the inhibition at 30 µM in the assay on HepG2 (liver cancer) is ≥ 50%.
For the compound `CC1=C(CC(=O)O)c2cc(F)ccc2/C1=C\c1ccc(OC2CCNCC2)cc1` [C202, (Z)-2-(5-Fluoro-2-methyl-1-(4-(piperidin-4-yloxy)benzylidene)-1H-inden-3-yl)-acetic acid], the inhibition at 3.3 µM in assay [1] was ≥ 50%; in assay [2] it was < 30%; in the assay with SW480 (colon cancer), < 30%; in assay [3] it was < 30%; in the assay on HeLa (cervical cancer), < 30%; in assay [4], < 30%. Further, the inhibition at 3.3 µM in the assay on HepG2 (liver cancer) is < 30%. For the same compound, the inhibition at 10 µM in assay [1] was ≥ 50%; in assay [2] it was < 30%; in the assay with SW480 (colon cancer), < 30%; in assay [3], < 30%; in the assay on HeLa (cervical cancer) it was 30 to 50%; in assay [4] it was < 30%. In the assay on HepG2 (liver cancer), the inhibition at 10 µM was < 30%. In addition, the inhibition at 30 µM is ≥ 50% in assay [1]; 30 to 50% in assay [2]; < 30% in the assay on SW480 (colon cancer); ≥ 50% in assay [3]; ≥ 50% with HeLa (cervical cancer); ≥ 50% in assay [4]. In the assay with HepG2 (liver cancer), the inhibition at 30 µM was ≥ 50%.
Consider `CC(=O)CC(=O)N1CCC(Oc2ccc(/C=C3/C(C)=C(CC(=O)O)c4cc(F)ccc43)cc2)CC1` [C203, (Z)-2-(5-Fluoro-2-methyl-1-(4-((1-(3-oxobutanoyl)piperidin-4-yl)oxy)-benzylidene)-1H-inden-3-yl)acetic acid], for which the inhibition at 3.3 µM was ≥ 50% in assay [1]; 30 to 50% in assay [2]; < 30% in the assay with SW480 (colon cancer); < 30% in assay [3]; < 30% with HeLa (cervical cancer); < 30% in assay [4]. For the same compound, the inhibition at 3.3 µM in the assay on HepG2 (liver cancer) is < 30%. Also, the inhibition at 10 µM in assay [1] was ≥ 50%; in assay [2], < 30%; in the assay on SW480 (colon cancer), < 30%; in assay [3] it was < 30%; with HeLa (cervical cancer) it was < 30%; in assay [4], ≥ 50%. Further, the inhibition at 10 µM in the assay on HepG2 (liver cancer) was < 30%. The inhibition at 30 µM in assay [1] was ≥ 50%; in assay [2], < 30%; in the assay with SW480 (colon cancer), < 30%; in assay [3], < 30%; in the assay with HeLa (cervical cancer), < 30%; in assay [4], ≥ 50%. Besides, in the assay on HepG2 (liver cancer), the inhibition at 30 µM is < 30%.
Regarding `CC1=C(CC(=O)O)c2cc(F)ccc2/C1=C\c1ccc(OC2CCC(F)(F)CC2)cc1` [C205, (Z)-2-(1-(4-((4,4-Difluorocyclohexyl)oxy)benzylidene)-5-fluoro-2-methyl-1H-inden-3-yl)acetic acid], the inhibition at 3.3 µM in assay [1] was < 30%; in assay [2] it was < 30%; with SW480 (colon cancer), 30 to 50%; in assay [3], ≥ 50%; in the assay with HeLa (cervical cancer) it was < 30%; in assay [4], ≥ 50%. For the same compound, the inhibition at 3.3 µM with HepG2 (liver cancer) was < 30%. The inhibition at 10 µM in assay [1] is 30 to 50%; in assay [2] it was ≥ 50%; with SW480 (colon cancer), 30 to 50%; in assay [3], ≥ 50%; with HeLa (cervical cancer), ≥ 50%; in assay [4] it was ≥ 50%. The inhibition at 10 µM in the assay with HepG2 (liver cancer) fell in the range of 30 to 50%. For the same compound, the inhibition at 30 µM (in assay [1]; in assay [2]; in the assay on SW480 (colon cancer); in assay [3]; in the assay with HeLa (cervical cancer); in assay [4]) was ≥ 50% throughout. For the same compound, the inhibition at 30 µM in the assay with HepG2 (liver cancer) is ≥ 50%.
As for `CC1=C(CC(=O)O)c2cc(F)ccc2/C1=C\c1cccc(OC2CCC(F)(F)CC2)c1` [C206, (Z)-2-(1-(3-((4,4-Difluorocyclohexyl)oxy)benzylidene)-5-fluoro-2-methyl-1H-inden-3-yl)acetic acid], the inhibition at 3.3 µM is 30 to 50% in assay [1]; < 30% in assay [2]; 30 to 50% with SW480 (colon cancer); ≥ 50% in assay [3]; < 30% with HeLa (cervical cancer); ≥ 50% in assay [4]. Moreover, the inhibition at 3.3 µM in the assay with HepG2 (liver cancer) was < 30%. Besides, the inhibition at 10 µM in assay [1] was 30 to 50%; in assay [2], ≥ 50%; with SW480 (colon cancer) it was ≥ 50%; in assay [3], ≥ 50%; with HeLa (cervical cancer), ≥ 50%; in assay [4], ≥ 50%. Further, in the assay with HepG2 (liver cancer), the inhibition at 10 µM was ≥ 50%. In addition, the inhibition at 30 µM (in assay [1]; in assay [2]; in the assay on SW480 (colon cancer); in assay [3]; in the assay on HeLa (cervical cancer); in assay [4]) was ≥ 50% each time. The inhibition at 30 µM with HepG2 (liver cancer) is ≥ 50%.
